{
  "source": "patent US4689326A",
  "about": "“Process for controlling hyperlipidemia” (Research Corporation, priority 1985, dated 1987)",
  "key": {"[1]": {"biological_target": "T1, Acyl CoA Cholesterol Acyl (Mus musculus, UniProt O88908)", "T1 construct": "10% homogenates of CF1 male mouse liver; from tissue; host or cells: CF1 male mouse liver, 10% homogenate", "T1 sequence (O88908 1-525)": "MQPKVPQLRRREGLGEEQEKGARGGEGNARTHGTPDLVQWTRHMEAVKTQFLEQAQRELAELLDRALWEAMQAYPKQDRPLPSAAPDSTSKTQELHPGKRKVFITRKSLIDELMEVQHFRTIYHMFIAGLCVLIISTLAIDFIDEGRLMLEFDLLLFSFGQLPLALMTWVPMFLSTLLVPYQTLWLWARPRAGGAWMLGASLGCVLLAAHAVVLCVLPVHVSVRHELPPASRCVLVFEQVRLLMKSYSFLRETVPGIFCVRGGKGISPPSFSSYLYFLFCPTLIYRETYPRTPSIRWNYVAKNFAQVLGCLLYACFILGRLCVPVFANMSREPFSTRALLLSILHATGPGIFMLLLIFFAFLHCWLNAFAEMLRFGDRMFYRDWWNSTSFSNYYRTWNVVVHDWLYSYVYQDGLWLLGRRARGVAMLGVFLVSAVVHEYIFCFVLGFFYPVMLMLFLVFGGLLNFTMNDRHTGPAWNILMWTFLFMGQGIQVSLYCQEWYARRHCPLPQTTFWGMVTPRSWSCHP", "experiment": "In vitro enzyme activity, liver homogenate: acyl CoA cholesterol acyl transferase", "assay_type": "biochemical, CF1 male mouse", "conditions": "± SD, N = 6, read-out: Percent Control, in vitro enzyme activity", "protocol": "(§1) In vitro enzymatic studies were undertaken using 10% homogenates of CF1 male mouse liver with […] of compound 3,4,5,6-dibenzohomopiperidine. In addition, in vivo enzymatic studies were performed, again using 10% liver homogenates (prepared in 0.25 M sucrose plus 0.001 M (ethylenedinitrilo)-tetraacetic acid, ph 7.25 from CF1 male mice obtained after administering 3,4,5,6-dibenzohomopiperidine for 16 days at a concentration ranging from 10 to 60 mg/kg/day, intraperitoneally.\n(§2) The following enzyme activities were determined by following standard literature procedures: acetyl coenzyme synthetase; adenosine triphosphate dependent citrate lyase; mitochondrial citrate exchange; cholesterol/7 hydroxylase; 3-hydroxy-3-methyl-glutaryl coenzyme A reductase; acetyl coenzyme A carboxylase activity; fatty acid synthetase activity; sn-glycerol-3-phosphate acyl transferase activity; phosphatidate phosphohydrolase activity; cholesterol acyl transferase; and heparin activated hepatic lypoprotein lipase. Protein was determined for all enzyme assays by the Lowry et al. technique (J. Biol. Chem, 193, 265 (1951))."}, "[2]": {"test_system": "HMG CoA Reductase", "experiment": "In vivo enzyme activity, liver of treated mice: HMG CoA reductase", "set-up": "species or system CF1 male mice", "conditions": "16 days, ± SD", "protocol": "as §1, §2"}, "[3]": {"test_system": "Feces", "experiment": "Lipid Extraction Studies in Rats, Example 11: feces", "assay_type": "in vivo, Sprague Dawley male rats", "conditions": "oral 20 mg/kg/day, fourteen days, ± SD"}, "[4]": {"test_system": "serum cholesterol", "experiment": "Testing of Normal Rats: serum cholesterol, Example 8", "assay_type": "in vivo, Sprague Dawley male rats", "conditions": "oral 20 mg/kg/day", "protocol": "In Example 8 a set of six Sprague Dawley male rats, each weighing approximately 350 grams, were orally treated with a concentration of 20 mg per kilogram of rat weight per day, again suspended in a 1% aqueous solution of CMC. The dosage was applied orally by an intubation needle. On days 9 and 16 serum cholesterol and serum triglycerides blood levels of the rats were measured utilizing th procedure of Example 7.\nA control group of six similar Sprague Dawley male rats were untreated but tested on Days 9 and 16 in accordance with the tests administered to the treated rats. Table 6 reports the percent control based on the decrease in serum cholesterol and serum triglycerides of the treated rats compared to the levels measured in the untreated control group."}, "[5]": {"biological_target": "T2, HMG CoA Reductase (Mus musculus, UniProt Q01237)", "T2 construct": "10% homogenates of CF1 male mouse liver; from tissue; host or cells: CF1 male mouse liver, 10% homogenate", "T2 sequence (Q01237 1-887)": "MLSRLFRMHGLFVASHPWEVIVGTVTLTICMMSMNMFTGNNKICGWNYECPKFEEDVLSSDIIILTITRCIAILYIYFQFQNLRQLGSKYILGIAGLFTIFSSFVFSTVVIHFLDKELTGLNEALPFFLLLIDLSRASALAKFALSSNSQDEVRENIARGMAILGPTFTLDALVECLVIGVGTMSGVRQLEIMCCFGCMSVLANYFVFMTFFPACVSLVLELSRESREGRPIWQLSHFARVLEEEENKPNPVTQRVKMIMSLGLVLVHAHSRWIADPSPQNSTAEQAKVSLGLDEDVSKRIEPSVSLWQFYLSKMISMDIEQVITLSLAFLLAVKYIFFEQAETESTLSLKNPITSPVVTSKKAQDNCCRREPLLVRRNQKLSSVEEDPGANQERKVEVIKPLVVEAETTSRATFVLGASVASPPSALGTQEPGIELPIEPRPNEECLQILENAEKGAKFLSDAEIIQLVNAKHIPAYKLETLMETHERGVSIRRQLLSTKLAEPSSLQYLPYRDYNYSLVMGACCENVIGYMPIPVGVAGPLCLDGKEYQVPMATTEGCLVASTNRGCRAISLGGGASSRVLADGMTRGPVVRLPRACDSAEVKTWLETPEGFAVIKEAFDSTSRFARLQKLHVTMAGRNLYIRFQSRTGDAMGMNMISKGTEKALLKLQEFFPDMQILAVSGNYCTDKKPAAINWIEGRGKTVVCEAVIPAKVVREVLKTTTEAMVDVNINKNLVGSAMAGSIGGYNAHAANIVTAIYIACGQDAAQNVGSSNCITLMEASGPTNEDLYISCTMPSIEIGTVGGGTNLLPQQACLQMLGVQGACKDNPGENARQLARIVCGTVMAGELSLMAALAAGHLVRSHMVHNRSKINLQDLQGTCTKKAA", "experiment": "In vitro enzyme activity, liver homogenate: HMG CoA reductase", "assay_type": "biochemical, CF1 male mouse", "conditions": "± SD, N = 6, read-out: Percent Control, in vitro enzyme activity", "protocol": "as §1, §2"}, "[6]": {"biological_target": "T3, Acetyl CoA Carboxylase (Mus musculus, UniProt Q5SWU9)", "T3 construct": "10% homogenates of CF1 male mouse liver; from tissue; host or cells: CF1 male mouse liver, 10% homogenate", "experiment": "In vitro enzyme activity, liver homogenate: acetyl CoA carboxylase", "assay_type": "biochemical, CF1 male mouse", "conditions": "± SD, N = 6, read-out: Percent Control, in vitro enzyme activity", "protocol": "as §1, §2"}, "[7]": {"test_system": "serum triglycerides", "experiment": "Testing of Normal Mice: serum triglycerides (BioDynamics kit), Example 7", "assay_type": "in vivo, CF1 male mice", "conditions": "Mus musculus, 384 h, day 16, ± SD"}, "[8]": {"test_system": "Small Intestine", "experiment": "Lipid Extraction Studies in Rats, Example 11: small intestine", "assay_type": "in vivo, Sprague Dawley male rats", "conditions": "oral 20 mg/kg/day, fourteen days, ± SD"}},
  "data": [
    {"smiles": "c1ccc2c(c1)CNCc1ccccc1-2", "note": "[Compound 3, 3,4,5,6-dibenzohomopiperidine]", "values": [
      {"measurement": "remaining activity at 50 µM", "setting": "[1]; 50 μM", "result": "60 ± 6", "unit": "%"},
      {"measurement": "remaining activity at 100 µM", "setting": "[1]; 100 μM", "result": "59 ± 5", "unit": "%"},
      {"measurement": "remaining activity at 200 µM", "setting": "[1]; 200 μM", "result": "3 ± 1", "unit": "%"},
      {"measurement": "Percent Control, in vivo enzyme activity", "setting": "[2]; 10 mg/kg/day ip", "result": "123 ± 5", "unit": "%"},
      {"measurement": "Percent Control, in vivo enzyme activity", "setting": "[2]; 20 mg/kg/day ip", "result": "133 ± 9", "unit": "%"},
      {"measurement": "Percent Control, in vivo enzyme activity", "setting": "[2]; 40 mg/kg/day ip", "result": "146 ± 7", "unit": "%"},
      {"measurement": "Percent Control, in vivo enzyme activity", "setting": "[2]; 60 mg/kg/day ip", "result": "124 ± 6", "unit": "%"},
      {"measurement": "Cholesterol, concentration as a function of control", "setting": "[3]", "result": "103 ± 7", "unit": "%"},
      {"measurement": "Mg Lipid Wt, concentration as a function of control", "setting": "[3]", "result": "102 ± 8", "unit": "%"},
      {"measurement": "Neutral Lipids, concentration as a function of control", "setting": "[3]", "result": "108 ± 9", "unit": "%"},
      {"measurement": "Phospholipids, concentration as a function of control", "setting": "[3]", "result": "108 ± 10", "unit": "%"},
      {"measurement": "Protein, concentration as a function of control", "setting": "[3]", "result": "133 ± 8", "unit": "%"},
      {"measurement": "Triglycerides, concentration as a function of control", "setting": "[3]", "result": "99 ± 7", "unit": "%"},
      {"measurement": "% Control Serum Cholesterol Day 9", "setting": "[4]; day 9, ± SD", "result": "75 ± 5", "unit": "%"},
      {"measurement": "% Control Serum Cholesterol Day 16", "setting": "[4]; day 16, ± SD", "result": "64 ± 3", "unit": "%"},
      {"measurement": "remaining activity at 50 µM", "setting": "[5]; 50 μM", "result": "95 ± 5", "unit": "%"},
      {"measurement": "remaining activity at 100 µM", "setting": "[5]; 100 μM", "result": "151 ± 9", "unit": "%"},
      {"measurement": "remaining activity at 200 µM", "setting": "[5]; 200 μM", "result": "255 ± 8", "unit": "%"},
      {"measurement": "remaining activity at 50 µM", "setting": "[6]; 50 μM", "result": "84 ± 6", "unit": "%"},
      {"measurement": "remaining activity at 100 µM", "setting": "[6]; 100 μM", "result": "100 ± 7", "unit": "%"},
      {"measurement": "remaining activity at 200 µM", "setting": "[6]; 200 μM", "result": "99 ± 5", "unit": "%"},
      {"measurement": "response vs control in vivo at 10 mg/kg", "setting": "[7]; 10 mg/kg/day ip", "result": "48 ± 5", "unit": "%"},
      {"measurement": "response vs control in vivo at 40 mg/kg", "setting": "[7]; 40 mg/kg/day ip", "result": "44 ± 6", "unit": "%"},
      {"measurement": "response vs control in vivo at 60 mg/kg", "setting": "[7]; 60 mg/kg/day ip", "result": "55 ± 6", "unit": "%"},
      {"measurement": "Cholesterol, concentration as a function of control", "setting": "[8]", "result": "130 ± 6", "unit": "%"},
      {"measurement": "Mg Lipid Wt, concentration as a function of control", "setting": "[8]", "result": "143 ± 5", "unit": "%"},
      {"measurement": "Neutral Lipids, concentration as a function of control", "setting": "[8]", "result": "149 ± 6", "unit": "%"},
      {"measurement": "Phospholipids, concentration as a function of control", "setting": "[8]", "result": "119 ± 6", "unit": "%"},
      {"measurement": "Protein, concentration as a function of control", "setting": "[8]", "result": "118 ± 7", "unit": "%"},
      {"measurement": "Triglycerides, concentration as a function of control", "setting": "[8]", "result": "130 ± 6", "unit": "%"}
    ]}
  ]
}
